Data as given in patent US10053666B2, “Medium for preparing a neural cell and usage thereof” (SHENZHEN CELL INSPIRE BIOTECHNOLOGY CO., LTD., priority 2014, dated 2018).

Legend:
IMR90 = assay: Conversion of fibroblast cell line to neural cell / iOPC in neural induction medium; format: cell-based, human; conditions: for conversion into neural cell: 10 μM in neural induction medium, IMR90
Method: (§1) Using the same method with EXAMPLE 1, cultured fiber cell line IMR90 and WI38 with neural induction medium including 10 μM Y27632, Palomid 529, LY294002, PF562271 or rapamycin.
(§2) In contrast, after 4 weeks in the same induction medium without ROCK inhibitor, cells kept fibroblast morphology with negative staining of O4, A2B5, and S100β (data not shown). […] To confirm conversion of fibroblasts to iOPCs by ROCK inhibitor, additional two human primary fibroblast cell lines, IMR90 and WI38, were tested using the same fibroblast—OPC conversion conditions. Consistent with the results from adult dermal cells, inventors observed 60-80% of fibroblast—OPC conversion in these two cell lines (data not shown). Next, inventors assessed whether the iOPCs could differentiate into mature oligodendrocytes. After removing growth factors and addition of thyroid hormone (a known inducer of oligodendrocyte differentiation) in cell culture medium, about 70% of the iOPCs differentiated into cells with a multiprocessed morphology typical of oligodendrocytes within 3-7 days (FIG. 2b). The oligodendrocytes expressed myelin basic protein (MBP), an integral protein component of the myelin sheath, and other defining markers of mature oligodendrocytes, including myelin-associated glycoprotein and myelin oligodendrocyte glycoprotein (FIG. 2b). Thus, inventors concluded that ROCK inhibitor-induced iOPCs can be further differentiated into mature functional oligodendrocytes.

WI38 = assay: as above; format: cell-based, human; conditions: for conversion into neural cell: 10 μM in neural induction medium, WI38
Method: as §1, §2

[1] = tested on: human adult dermal fibroblasts; assay: Screening of protein kinase inhibitor library for fibroblast-OPC conversion; format: cell-based; conditions: with retinoic acid (RA), neural induction medium, quantified on day 7
Method: 1. Coated cell culture 24-well plate with 0.1 mg/ml Poly-L-ornithine solution (sigma, P4957) for at least 3 hours. Then washed wells 3 times with autoclaved MilliQ water, 5 mins per time.
2. Added 500 ul/well of […] Fibronectin (sigma, F0556) and […] Laminin (ROCHE, 11243217001) solution in 1×PBS and placed in incubator overnight to coat.
3. Aspirated the Fibronectin/Laminin solution from the wells, washed with culture medium.
4. Plated fibroblast cells with Basic Medium at 2×10^4 cells (human adult dermal fibroblasts, ATCC, PCS-201-012) per well, cultured overnight. The Basic Medium comprises: DMEM high glucose (HyClone, SH30022), 10% FBS (Fisher Scientific, SH3007003), 10 mM HEPES (CORNING 25060-CL), 1×MEM NEAA (100×) (GIBCO, 11140) (MEM Non-Essential Amino Acids Solution), 1 mM Na Pyruvate (GIBCO, 25000), 1×2-Mercaptoethanol (1000×) (GIBCO, 21985), 1× Glutamax (100×) (GIBCO, 35050), penicillin/streptomycin.
5. Aspirated Basic Medium from the wells.
7. Fed wells with Induction Medium. Changed medium every two days. […]

dermal fibroblasts = assay: Immunostaining of OPC-specific biomarkers after 7-day induction; format: cell-based, human
Method: After 7-day induction with ROCK inhibitor treatment, cells were fixed and analyzed by immunostaining of the OPC-specific biomarker, O4. Immunofluorescence staining was performed as following steps:
Briefly, 5×10^4 modified human fibroblasts were planted on coated glass coverslips the day before induction. After induction, cells were fixed for 20 min at room temperature in 4% paraformaldehyde in PBS, permeabilized for 30 min in PBS containing 0.2% Triton X-100 and 10% normal goat serum (NGS), and incubated overnight at 4° C. in PBS containing 10% NGS and primary antibodies. Then cells were washed three times with PBS and incubated for 2 h at room temperature with anti-rabbit or anti-mouse secondary antibodies Alexa Fluor-488 or Alexa Fluor-594 (1:500, Invitrogen). The images were acquired by immunofluorescence microscope or Zeiss LSM 510 META confocal microscope with 40×, 1.3 numerical aperture oil-immersion objective.
The following antibodies were used for the immunofluorescence studies: mouse anti-04 (Millipore, 1:50), rabbit anti-NF (Sigma-Aldrich, 1:1000), mouse anti-A2B5 (Millipore, 1:50), MBP (1:100, Covance; 1:100, Abcam), MAG (Millipore, 1:50), MOG (Millipore, 1:50).

IMR90 fibroblasts = assay: Direct conversion of fibroblasts to neurons and astrocytes; format: cell-based, human
Method: To assess the general application of ROCK inhibitor for direct conversion of different neural cells, inventors tweaked the protocol for induction of iOPCs and successfully converted fibroblasts to typical neurons and astrocytes. using the following procedure:
at Day 1, coat tissue culture 24-well plate with 0.1 mg/ml Poly-L-ornithine solution (sigma, P4957) for at least 3 hours; wash wells 3 times with autoclaved MilliQ water, 5 mins each; add 500 ul/well of 2 μg/ml Fibronectin (sigma, F0556) and 10 μg/ml Laminin (ROCHE, 11243217001) solution in 1×PBS and place in incubator overnight to coat. At Day 2, aspirate the F/L solution from the well, wash with basic medium and plate fibroblast cells with basic medium at 2×10^4 cells per well. At Day 3, aspirate basic medium from the well, wash with PBS once, and feed cells with induction medium. From Day 6-10, when cells change their morphology into neural-like cells, culture cells with mature medium or OPC medium.

For CN(c1ncccc1CNc1nc(Nc2ccc3c(c2)CC(=O)N3)ncc1C(F)(F)F)S(C)(=O)=O [PF562271], the “conversion into neural cell” value (IMR90) was “converted into neural cell” and the “conversion into neural cell” value (WI38) was “converted into neural cell”.

With COc1ccc(COc2cc3oc(=O)c4cc(C(C)O)ccc4c3cc2OC)cc1 (stereo not shown) [Palomid 529] the “conversion into neural cell” value (IMR90) was “converted into neural cell” and the “conversion into neural cell” value (WI38) was “converted into neural cell”.

C[C@@H](N)[C@H]1CC[C@H](C(=O)Nc2ccncc2)CC1 [Y27632] was tested, and the “efficiency of conversion of human fibroblasts into iOPCs (OPC positive cells counted by morphology)” value [1] was ~80%, the “conversion into neural cell” value (IMR90) was “converted into neural cell” and the fibroblast-OPC conversion (IMR90; IMR90, same conversion conditions (data not shown)) was 60-80%. For the same compound, the “conversion into neural cell” value (WI38) was “converted into neural cell”, the fibroblast-OPC conversion (WI38; WI38, same conversion conditions (data not shown)) was 60-80% and the “dermal fibroblasts converted to O4-positive cells with OPC morphology” value (dermal fibroblasts; 7-day induction) was “about 80%”. For the same compound, the “staining with additional OPC markers A2B5 and S100β” value (dermal fibroblasts; O4 positive cells after 7-day induction) was “positive staining”, the “staining of astrocyte-specific biomarker GFAP in induced astrocytes” value (IMR90 fibroblasts; induced astrocytes) was “positive staining” and the “staining of neuronal biomarkers Tuj and MAP2 in induced neuronal cells” value (IMR90 fibroblasts; induced neuronal cells (iNCs)) was “positive staining”.
